From PubChem BioAssay (NCI)
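Cells were grown in 96-well plates and exposed to each compound for 48 hours at five concentrations; endpoints were interpolated linearly between bracketing concentrations, or set to the highest concentration if not reached. GI50 marks 50% less growth. TGI is the concentration that stops growth completely.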

Experiments:
Assay in all cases: DTP human tumour cell line panel, 48 h
786-0 renal = tested on: 786-0 renal
A498 renal = tested on: A498 renal
A549 NSCLC = tested on: A549 NSCLC
ACHN renal = tested on: ACHN renal
BT-549 breast = tested on: BT-549 breast
CAKI-1 renal = tested on: CAKI-1 renal
CCRF-CEM leukemia = tested on: CCRF-CEM leukemia
COLO 205 colon = tested on: COLO 205 colon
DU-145 prostate = tested on: DU-145 prostate
HCC-2998 colon = tested on: HCC-2998 colon
HCT-116 colon = tested on: HCT-116 colon
HCT-15 colon = tested on: HCT-15 colon
HL-60(TB) leukemia = tested on: HL-60(TB) leukemia
HOP-62 NSCLC = tested on: HOP-62 NSCLC
HOP-92 NSCLC = tested on: HOP-92 NSCLC
HS 578T breast = tested on: HS 578T breast
HT29 colon = tested on: HT29 colon
IGROV1 ovarian = tested on: IGROV1 ovarian
K-562 leukemia = tested on: K-562 leukemia
KM12 colon = tested on: KM12 colon
LOX IMVI melanoma = tested on: LOX IMVI melanoma
M14 melanoma = tested on: M14 melanoma
MALME-3M melanoma = tested on: MALME-3M melanoma
MCF7 breast = tested on: MCF7 breast
MDA-MB-231 breast = tested on: MDA-MB-231 breast
MDA-MB-435 = tested on: MDA-MB-435
MOLT-4 leukemia = tested on: MOLT-4 leukemia
NCI-H226 lung = tested on: NCI-H226 lung
NCI-H23 lung = tested on: NCI-H23 lung
NCI-H460 lung = tested on: NCI-H460 lung
NCI-H522 lung = tested on: NCI-H522 lung
NCI/ADR-RES ovarian = tested on: NCI/ADR-RES ovarian
OVCAR-3 ovarian = tested on: OVCAR-3 ovarian
OVCAR-4 ovarian = tested on: OVCAR-4 ovarian
OVCAR-5 ovarian = tested on: OVCAR-5 ovarian
OVCAR-8 ovarian = tested on: OVCAR-8 ovarian
PC-3 prostate = tested on: PC-3 prostate
RPMI-8226 leukemia = tested on: RPMI-8226 leukemia
RXF 393 renal = tested on: RXF 393 renal
SF-268 CNS = tested on: SF-268 CNS
SF-295 CNS = tested on: SF-295 CNS
SF-539 CNS = tested on: SF-539 CNS
SK-MEL-2 melanoma = tested on: SK-MEL-2 melanoma
SK-MEL-28 melanoma = tested on: SK-MEL-28 melanoma
SK-MEL-5 melanoma = tested on: SK-MEL-5 melanoma
SK-OV-3 ovarian = tested on: SK-OV-3 ovarian
SN12C renal = tested on: SN12C renal
SNB-19 CNS = tested on: SNB-19 CNS
SNB-75 CNS = tested on: SNB-75 CNS
SR leukemia = tested on: SR leukemia
SW-620 colon = tested on: SW-620 colon
T-47D breast = tested on: T-47D breast
TK-10 renal = tested on: TK-10 renal
U251 CNS = tested on: U251 CNS
UACC-257 melanoma = tested on: UACC-257 melanoma
UACC-62 melanoma = tested on: UACC-62 melanoma
UO-31 renal = tested on: UO-31 renal

`CC(C)(C)c1cc(C[P+](c2ccccc2)(c2ccccc2)c2ccccc2)cc(C(C)(C)C)c1O` gave a GI50 (786-0 renal) of 1810 nM, a TGI (786-0 renal) of 9730 nM and a GI50 (A498 renal) of 451 nM. It also gave a TGI (A498 renal) of 3690 nM, a GI50 (A549 NSCLC) of 392 nM and a TGI (A549 NSCLC) of 11000 nM. The GI50 (ACHN renal) was 2630 nM, the TGI (ACHN renal) was 10800 nM and the GI50 (BT-549 breast) was 330 nM. For the same compound, the TGI (BT-549 breast) was 898 nM, the GI50 (CAKI-1 renal) was 2640 nM and the TGI (CAKI-1 renal) was 8700 nM. The GI50 (CCRF-CEM leukemia) was 545 nM, the TGI (CCRF-CEM leukemia) was 5330 nM and the GI50 (COLO 205 colon) was 199 nM. For the same compound, the TGI (COLO 205 colon) was 521 nM, the GI50 (DU-145 prostate) was 593 nM and the TGI (DU-145 prostate) was 11800 nM. The GI50 (HCC-2998 colon) was 491 nM, the TGI (HCC-2998 colon) was 10200 nM and the GI50 (HCT-116 colon) was 275 nM. It also gave a TGI (HCT-116 colon) of 10200 nM, a GI50 (HCT-15 colon) of 2390 nM and a TGI (HCT-15 colon) of 11900 nM. It also gave a GI50 (HL-60(TB) leukemia) of 220 nM, a TGI (HL-60(TB) leukemia) of 682 nM and a GI50 (HOP-62 NSCLC) of 660 nM. It also gave a TGI (HOP-62 NSCLC) of 3940 nM, a GI50 (HOP-92 NSCLC) of 155 nM and a TGI (HOP-92 NSCLC) of 555 nM. For the same compound, the GI50 (HS 578T breast) was 510 nM, the TGI (HS 578T breast) was 17100 nM and the GI50 (HT29 colon) was 184 nM. For the same compound, the TGI (HT29 colon) was 1650 nM, the GI50 (IGROV1 ovarian) was 437 nM and the TGI (IGROV1 ovarian) was 7460 nM. For the same compound, the GI50 (K-562 leukemia) was 341 nM, the TGI (K-562 leukemia) was 4640 nM and the GI50 (KM12 colon) was 364 nM. The TGI (KM12 colon) was 1510 nM, the GI50 (LOX IMVI melanoma) was 457 nM and the TGI (LOX IMVI melanoma) was 1890 nM. For the same compound, the GI50 (M14 melanoma) was 398 nM, the TGI (M14 melanoma) was 3530 nM and the GI50 (MALME-3M melanoma) was 291 nM. It also gave a TGI (MALME-3M melanoma) of 947 nM, a GI50 (MCF7 breast) of 270 nM and a TGI (MCF7 breast) of 4040 nM. It also gave a GI50 (MDA-MB-231 breast) of 473 nM, a TGI (MDA-MB-231 breast) of 2840 nM and a GI50 (MDA-MB-435) of 289 nM. The TGI (MDA-MB-435) was 1200 nM, the GI50 (MOLT-4 leukemia) was 1410 nM and the TGI (MOLT-4 leukemia) was 5190 nM. The GI50 (NCI-H226 lung) was 1450 nM, the TGI (NCI-H226 lung) was 18300 nM and the GI50 (NCI-H23 lung) was 365 nM. For the same compound, the TGI (NCI-H23 lung) was 8210 nM, the GI50 (NCI-H460 lung) was 413 nM and the TGI (NCI-H460 lung) was 2590 nM. The GI50 (NCI-H522 lung) was 330 nM, the TGI (NCI-H522 lung) was 1910 nM and the GI50 (NCI/ADR-RES ovarian) was 9120 nM. For the same compound, the TGI (NCI/ADR-RES ovarian) was 33800 nM, the GI50 (OVCAR-3 ovarian) was 359 nM and the TGI (OVCAR-3 ovarian) was 10200 nM. For the same compound, the GI50 (OVCAR-4 ovarian) was 337 nM, the TGI (OVCAR-4 ovarian) was 9160 nM and the GI50 (OVCAR-5 ovarian) was 2500 nM. The TGI (OVCAR-5 ovarian) was 14300 nM, the GI50 (OVCAR-8 ovarian) was 386 nM and the TGI (OVCAR-8 ovarian) was 5560 nM. It also gave a GI50 (PC-3 prostate) of 278 nM, a TGI (PC-3 prostate) of 1910 nM and a GI50 (RPMI-8226 leukemia) of 178 nM. For the same compound, the TGI (RPMI-8226 leukemia) was 627 nM, the GI50 (RXF 393 renal) was 1000 nM and the TGI (RXF 393 renal) was 4670 nM. For the same compound, the GI50 (SF-268 CNS) was 429 nM, the TGI (SF-268 CNS) was 15000 nM and the GI50 (SF-295 CNS) was 547 nM. The TGI (SF-295 CNS) was 6790 nM, the GI50 (SF-539 CNS) was 854 nM and the TGI (SF-539 CNS) was 7830 nM. The GI50 (SK-MEL-2 melanoma) was 257 nM, the TGI (SK-MEL-2 melanoma) was 585 nM and the GI50 (SK-MEL-28 melanoma) was 637 nM. It also gave a TGI (SK-MEL-28 melanoma) of 8210 nM, a GI50 (SK-MEL-5 melanoma) of 244 nM and a TGI (SK-MEL-5 melanoma) of 716 nM. For the same compound, the GI50 (SK-OV-3 ovarian) was 1440 nM, the TGI (SK-OV-3 ovarian) was 6700 nM and the GI50 (SN12C renal) was 404 nM. The TGI (SN12C renal) was 2310 nM, the GI50 (SNB-19 CNS) was 354 nM and the TGI (SNB-19 CNS) was 13800 nM. The GI50 (SNB-75 CNS) was 369 nM, the TGI (SNB-75 CNS) was 6180 nM and the GI50 (SR leukemia) was 403 nM. For the same compound, the TGI (SR leukemia) was 2500 nM, the GI50 (SW-620 colon) was 528 nM and the TGI (SW-620 colon) was 12000 nM. It also gave a GI50 (T-47D breast) of 200 nM, a TGI (T-47D breast) of 1010 nM and a GI50 (TK-10 renal) of 486 nM. The TGI (TK-10 renal) was 3250 nM, the GI50 (U251 CNS) was 268 nM and the TGI (U251 CNS) was 3760 nM. For the same compound, the GI50 (UACC-257 melanoma) was 227 nM, the TGI (UACC-257 melanoma) was 684 nM and the GI50 (UACC-62 melanoma) was 365 nM. It also gave a TGI (UACC-62 melanoma) of 1660 nM, a GI50 (UO-31 renal) of 2280 nM and a TGI (UO-31 renal) of 7140 nM.
